Drawing on ChEMBL document CHEMBL1806472, “Nobiletin metabolites: synthesis and inhibitory activity against matrix metalloproteinase-9 production” (Bioorg Med Chem Lett, 2011), this text covers IC50 for four compounds.

SMILES strings stand for the structures.

As usually defined, the IC50 is the concentration needed to halve the response being measured. A lower IC50 goes with inhibition by little substance.

Test [1] is described as follows: Inhibition of TNF-alpha-induced proMMP9 production in human SRA 01/04 cells after 24 hrs by SDS-PAGE analysis. The class given is functional, cell-based.
The nature of test [2]: Inhibition of PMA-induced proMMP9 production in human SRA 01/04 cells after 24 hrs by SDS-PAGE analysis. Format: functional, cell-based.

As for `COc1cc(-c2cc(=O)c3c(OC)c(OC)c(OC)c(OC)c3o2)ccc1O`, the half-inhibitory concentration (IC50) in test [1] was 5.5 µM; in test [2], 3.7 µM.
For `COc1ccc(-c2cc(=O)c3c(OC)c(OC)c(OC)c(OC)c3o2)cc1O`, in that order: 16.4 µM and 16.9 µM.
For the compound `COc1c(OC)c(OC)c2c(=O)cc(-c3ccc(O)c(O)c3)oc2c1OC`, the IC50 in test [1] was found to be 10.8 µM; in test [2] it was 12.3 µM.
The matching figures for `COc1ccc(-c2cc(=O)c3c(OC)c(OC)c(OC)c(OC)c3o2)cc1OC` [NOBILETIN]: 17 µM and 20.9 µM.
